From patent US20170224819A1, “Therapeutic Combinations of a BTK Inhibitor, a PI3K Inhibitor, a JAK-2 Inhibitor, and/or a CDK 4/6 Inhibitor” (Acerta Pharma B.V., priority 2014, published 2017)
“Also recorded” adds a separate entry of the source.

Assays:
[1] = tested on: human platelet-mediated thrombosis; assay: In vivo human thrombus formation in the VWF HA1 mice model (laser-induced injury); settings: pretreated human platelets
Description: Constitutive or aberrant activation of the BCR signaling cascade has been implicated in the propagation and maintenance of a variety of B cell malignancies. […] J. Haematol. […] In fact, both Tec and BTK play an important role in the regulation of phospholipase Cγ2 (PLCγ2) downstream of the collagen receptor glycoprotein VI (GPVI) in human platelets. […] Biotechnol.
Injury to the vessel wall of arterioles ([…] diameter) was performed using a pulsed nitrogen dye laser (440 nm, Photonic Instruments) applied through a 20× water-immersion Olympus objective (LUMPlanFl, 0.5 numerical aperature (NA)) of a Zeiss Axiotech vario microscope. […] The extent of thrombus formation was assessed for 2 minutes after injury and the area (μm^2) of coverage determined (Image IQ, Andor Technology).
The BTK inhibitor-treated human platelets were fluorescently labeled and infused continuously through a catheter inserted into the femoral artery.

[2] = tested on: B cell receptor signals (CD69); assay: Whole blood B cell receptor signaling, anti-IgD stimulated CD69 on CD19+ B cells; format: cell-based; settings: whole blood of four healthy donors, 2 hours incubation, anti-human IgD 18 hours
Description: Blood from four healthy donors was incubated for 2 hours with the compounds shown over a concentration range, and then stimulated with anti-human IgD [10 μg/mL] for 18 hours. The mean fluorescent intensity (MFI) of CD69 (and CD86, data not shown) on gated CD19+ B cells was measured by flow cytometry.

Raji cells = assay: Antibody-dependent NK cell-mediated cytotoxicity, chromium release assay; format: cell-based; settings: 1 μM; chromium-labeled Raji cells, 4 hours, variable rituximab concentrations, effector:target ratio 25:1; FIG. 134
[3] = tested on: GPVI platelet aggregation; assay: GPVI (convulxin-induced) platelet aggregation; format: cell-based; settings: human platelets
Description: GPVI platelet aggregation was measured for Formula (XVIII) and Formula XX-A (ibrutinib). Blood was obtained from untreated humans, and platelets were purified from […] by centrifugation. Cells were resuspended to a final concentration of 350,000/μL in buffer containing 145 mmol/L NaCl, 10 mmol/L HEPES, 0.5 mmol/L Na2HPO4, 5 mmol/L KCl, 2 mmol/L MgCl2, 1 mmol/L CaCl2, and 0.1% glucose, at pH 7.4. Stock solutions of […] were prepared on the day of experimentation and added to platelet suspensions 5 minutes (37° C., 1200 rpm) before the induction of aggregation. Aggregation was assessed with a Chronolog Lumi-Aggregometer (model 540 VS; Chronolog, Havertown, Pa.) and permitted to proceed for 6 minutes after the addition of agonist. The results are reported as maximum percent change in light transmittance from baseline with platelet buffer used as a reference.
In FIG. 126, the results of CVX-induced (250 ng/mL) human platelet aggregation results before and 15 minutes after administration of the BTK inhibitors to 6 healthy individuals are shown.

Structure (SMILES) | Effect on human platelet-mediated thrombus formation [1] | EC50 [2] | antibody-dependent NK cell-mediated cytotoxicity (percent lysis of tumor cells) (Raji cells) | GPVI platelet aggregation [3]
C=CC(=O)Nc1cccc(Nc2nc(Nc3ccc(OCCOC)cc3)ncc2F)c1 [CC-292, N-(3-((5-fluoro-2-((4-(2-methoxyethoxy)phenyl)amino)pyrimidin-4-yl)amino)phenyl)acrylamide, reference compound] | interfere with thrombus formation; also recorded: showed an effect similar to Formula XX-A (ibrutinib) | 121 nM | – | –
C=CC(=O)N1CCC[C@@H](n2nc(-c3ccc(Oc4ccccc4)cc3)c3c(N)ncnc32)C1 [ibrutinib, reference compound] | – | – | antagonizes | significantly inhibits GPVI platelet aggregation
